From publication PMC7070908, “Structure-Guided Identification of Black Cohosh (Actaea racemosa) Triterpenoids with In Vitro Activity against Multiple Myeloma” (Molecules, 2020)
≈ marks a conversion by molar mass, not a printed value. Where “and” joins values, the source holds several entries; their conditions need not be identical. Identical values can stand only once.

Columns and labels:
MCF7 breast cancer cells = test system: MCF7 breast cancer cells; set-up: method as in PMID 14758092; details: incubation times of 96 h; cited from earlier work
U266 myeloma cell line = experiment: Cytotoxicity, flow cytometry (AnnexinV/propidium iodide negativity), U266; assay type: cell-based, human; details: for activity on U266 (in words): up to 37.5 µM
Procedure: (§1) Induction of apoptosis was measured in myeloma cell lines NCI-H929, OPM-2, and U266 as well as in peripheral blood mononuclear cells (PBMCs) of healthy donors by flow cytometry using established protocols thereby staining the cells with AnnexinV-fluorescein isothiocyanate and propidium iodide. Bortezomib (Eubio, Vienna, Austria) was used as positive control. Cell lines were purchased from DSMZ (Braunschweig, Germany) and routinely fingerprinted and tested for mycoplasma negativity. All cells (cell lines and PBMC) were grown in RPMI-1640 medium (Life Technologies, Paisley, UK) supplemented with 10% fetal calf serum (FCS; PAA, Linz, Austria), L-glutamine 100 µg/mL, and penicillin-streptomycin 100 U/mL. PBMCs from healthy donors were used after obtaining written informed consent at the University Hospital Salzburg (ethics committee approval 415-E/1287/6-2011). Cells were subjected to Ficoll separation (Ficoll PaqueTM) and incubated in RPMI-1640 Media with supplements as above. In brief, 0.5 × 10^6 myeloma cells/mL or similar numbers of PMBCs were incubated for 24 h and 48 h with or without the tested compounds dissolved in dimethyl sulfoxide at different concentrations. At least three analyses in triplicates were performed for each cell line and a solvent control was always included. As a positive control, the proteasome inhibitor bortezomib (BTZ) was used at concentrations of 10 and 5 nM. The extent of non-apoptotic cells (AnnexinV/propidium iodide negativity) was calculated as percentage of viable cells in respect to the untreated control. Data are shown as mean percentage of viable cells and standard error of the mean (SEM) (error bars).

OPM-2 myeloma cell line = experiment: Cytotoxicity, flow cytometry (AnnexinV/propidium iodide negativity), OPM-2; assay type: cell-based, human; details: for activity on OPM-2 (in words): up to 37.5 µM
Procedure: as §1

[1] = test system: NCI-H929 myeloma cell line; experiment: Cytotoxicity, flow cytometry (AnnexinV/propidium iodide negativity), NCI-H929; assay type: cell-based, human; details: for activity on NCI-H929 (in words): up to 37.5 µM
Procedure: as §1

[2] = test system: doxorubicin-resistant-MCF7 (R-MCF7) cells; set-up: method as in PMID 20564500; details: cited from earlier work; for IC50 R-MCF7: doxorubicin-resistant MCF7, 48 h of incubation
[3] = test system: peripheral blood mononuclear cells (PBMCs) of healthy donors; experiment: Cytotoxicity, flow cytometry (AnnexinV/propidium iodide negativity), PBMC of healthy donors; assay type: cell-based, human
Procedure: as §1

MCF7 cells = test system: MCF7 cells; set-up: method as in PMID 20564500; details: cited from earlier work; for IC50 MCF7: 48 h of incubation
[4] = 12.5 µM, 24 h, second round (Table 3)
[5] = 25 µM, 24 h, second round (Table 3)
[6] = 37.5 µM, 24 h, second round (Table 3)
[7] = 25 µM, 24 h, % of untreated control, mean ± SEM (Table 1)
[8] = 25 µM, 48 h, % of untreated control, mean ± SEM (Table 2)
[9] = 50 µM, 24 h, % of untreated control, mean ± SEM (Table 1)
[10] = 50 µM, 48 h, % of untreated control, mean ± SEM (Table 2)
[11] = 5 nM, 24 h, positive control (Table 3)
[12] = 10 nM, 24 h, positive control (Table 3)

SMILES	IC50 growth inhibition of MCF7 breast cancer cells (MCF7 breast cancer cells)	MM Cells % Alive U266 (U266 myeloma cell line; [4])	MM Cells % Alive U266 (U266 myeloma cell line; [5])	MM Cells % Alive U266 (U266 myeloma cell line; [6])	activity on U266 (in words) (U266 myeloma cell line; 24 h)	MM Cells % Alive OPM-2 (OPM-2 myeloma cell line; [4])	MM Cells % Alive OPM-2 (OPM-2 myeloma cell line; [5])	MM Cells % Alive OPM-2 (OPM-2 myeloma cell line; [6])	activity on OPM-2 (in words) (OPM-2 myeloma cell line; 24 h)	MM Cells % Alive NCI-H929 [1, 4]	MM Cells % Alive NCI-H929 [1, 5]	MM Cells % Alive NCI-H929 [1, 6]	activity on NCI-H929 (in words) ([1]; 24 h)	PBMC % Alive [3, 4]	PBMC % Alive [3, 5]	PBMC % Alive [3, 6]	further results
CC(=O)O[C@@H]1C[C@@]23C[C@@]24CC[C@H](O[C@@H]2OC[C@@H](O)[C@H](O)[C@H]2O)C(C)(C)[C@@H]4CC=C3[C@]2(C)C[C@@H]3O[C@@]4(O)[C@H](OC(C)(C)[C@H]4O)[C@@H](C)[C@@H]3[C@@]12C [cimiracemoside A]	41 µg/mL	–	–	–	–	–	–	–	–	–	–	–	–	–	–	–	–
C=C(C)C1OC23OC1CC(C)C2C1(C)CCC24CC25CCC(OC2OCC(O)C(O)C2O)C(C)(C)C5CCC4C1(C)C3O [Compound 9, 25-anhydrocimigenol-3-O-α-L-arabinopyranoside]	–	101.5 ± 5.1%	101.8 ± 4.3%	101.3 ± 3.3%	no effect	95.8 ± 2.4%	100.0 ± 1.9%	104.0 ± 4.7%	no effect	96.0 ±1.0%	92.8 ± 1.7%	92.0 ± 1.5%	no effect	–	–	–	–
CC(=O)OC(C)(C)C1OC23OC1CC(C)C2C1(C)CCC24CC25CCC(OC2OCC(O)C(O)C2O)C(C)(C)C5CCC4C1(C)C3O [Compound 3, 25-O-acetylcimigenol-3-O-α-L-arabinopyranoside]	–	95.0 ± 2.4%	77.8 ± 4.6%	48.0 ± 7.4%	–	99.5 ± 2.0%	88.8 ± 1.8%	70.8 ± 11.5%	–	93.3 ± 1.8%	59.5 ± 7.8%	11.8 ± 4.3%	–	101.7 ± 0.3%	98.3 ± 2.0%	58.7 ± 12.7%	MM Cells % Alive U266 (U266 myeloma cell line; [7]): 89.3 ± 3.2%; MM Cells % Alive U266 (U266 myeloma cell line; [8]): 66.8 ± 9.5%; MM Cells % Alive U266 (U266 myeloma cell line; [9]): 13% and 12.9 ± 3.5%; IC50 (U266 myeloma cell line; Homo sapiens, U-266, 24 h, incubation for 24 h): 24.7 µg/mL (≈ 37.3 µM); IC50 R-MCF7 [2]: 5.3 µg/mL (≈ 8 µM); MM Cells % Alive OPM-2 (OPM-2 myeloma cell line; [7]): 63.8 ± 12%; MM Cells % Alive OPM-2 (OPM-2 myeloma cell line; [8]): 43.4 ± 9.3%; MM Cells % Alive OPM-2 (OPM-2 myeloma cell line; [9]): 20% and 19.7 ± 5.7%; IC50 (OPM-2 myeloma cell line; Homo sapiens, OPM-2, 24 h, incubation for 24 h): > 37.5 µg/mL; MM Cells % Alive NCI-H929 [1, 7]: 52.9 ± 7.1%; MM Cells % Alive NCI-H929 [1, 8]: 18.9 ± 3.3%; MM Cells % Alive NCI-H929 [1, 9]: 10% and 10.3 ± 2.8%; IC50 ([1]; Homo sapiens, NCI-H929, 24 h, incubation for 24 h): 18.1 µg/mL (≈ 27.3 µM); PBMC % Alive [3, 7]: 86.5 ± 2.7%; PBMC % Alive [3, 8]: 76.2 ± 1.8%; PBMC % Alive [3, 9]: 6.1 ± 1.5%; PBMC % Alive [3, 10]: 4.6 ± 0.1%; IC50 ([3]; Homo sapiens, PBMC, 24 h, incubation for 24 h): 25.9 µg/mL (≈ 39.1 µM); IC50 MCF7 (MCF7 cells): 4.0 µg/mL (≈ 6.03 µM)
CC(C)C[C@H](NC(=O)[C@H](Cc1ccccc1)NC(=O)c1cnccn1)B(O)O [BTZ, bortezomib, reference compound]	–	–	–	–	–	–	–	–	–	–	–	–	–	–	–	–	MM Cells % Alive U266 (U266 myeloma cell line; [11]): 80.7 ± 14.1%; MM Cells % Alive U266 (U266 myeloma cell line; [12]): 25.0 ± 8.3%; MM Cells % Alive OPM-2 (OPM-2 myeloma cell line; [11]): 85.3 ± 7.6%; MM Cells % Alive OPM-2 (OPM-2 myeloma cell line; [12]): 66.0 ± 9.4%; MM Cells % Alive NCI-H929 [1, 11]: 3.0 ± 1.0%; MM Cells % Alive NCI-H929 [1, 12]: 6.3 ± 5.4%
CC1CC2OC3(OC2C(C)(C)O)C1C1(C)CCC24CC25CCC(OC2OCC(O)C(O)C2O)C(C)(C)C5CCC4C1(C)C3O [Compound 5, cimigenol-3-O-α-L-arabinopyranoside]	–	95.0 ± 3.1%	95.8 ± 2.8%	93.5 ± 3.5%	no activity	99.8 ± 2.0%	103.3 ± 1.4%	103.5 ± 1.3%	no activity	98.8 ± 0.9%	97.0 ± 1.2%	96.3 ± 1.3%	no activity	–	–	–	–
COC(C)(C)C1OC23OC1CC(C)C2C1(C)CCC24CC25CCC(OC2OCC(O)C(O)C2O)C(C)(C)C5CCC4C1(C)C3O [Compound 8, 25-O-methyl-cimigenol-3-O-β-D-xylopyranoside]	–	102.0 ± 3.0%	97.5 ± 3.8%	81.0 ± 11.9%	–	97.8 ± 2.1%	84.3 ± 4.5%	27.0 ± 9.4%	–	84.8 ± 5.0%	31.3 ± 6.6%	5.0 ± 1.7%	–	104.3 ± 0.3%	96.3 ± 1.7%	64.3 ± 8.0%	IC50 U266 (U266 myeloma cell line; incubation for 24 h): 31.1 µg/mL (≈ 49 µM); IC50 OPM-2 (OPM-2 myeloma cell line; incubation for 24 h): 20.7 µg/mL (≈ 32.6 µM); IC50 NCI-H929 ([1]; incubation for 24 h): 14.2 µg/mL (≈ 22.4 µM); IC50 PBMC ([3]; incubation for 24 h): 26.0 µg/mL (≈ 41 µM)
CC(=O)OC(C)(C)C1OC23OC1CC(C)C2C1(C)CCC24CC25CCC(OC2OCC(O)C(O)C2O)C(C)(C)C5CCC4C1(C)C3O [Compound 4, 25-O-acetylcimigenol-3-O-β-D-xylopyranoside]	–	91.8 ± 4.2%	87.8 ± 2.0%	88.0 ± 1.2%	–	94.8 ± 5.3%	90.3 ± 3.7%	56.0 ± 13.0%	–	84.3 ± 8.6%	59.5 ± 8.7%	27.8 ± 6.6%	–	96.7 ± 2.9%	72.7 ± 5.4%	28.7 ± 5.9%	IC50 U266 (U266 myeloma cell line; incubation for 24 h): >37.5 µg/mL; IC50 R-MCF7 [2]: 4.8 µg/mL (≈ 7.24 µM); IC50 OPM-2 (OPM-2 myeloma cell line; incubation for 24 h): 26.3 µg/mL (≈ 39.7 µM); IC50 NCI-H929 ([1]; incubation for 24 h): 20.3 µg/mL (≈ 30.6 µM); IC50 PBMC ([3]; incubation for 24 h): 20.7 µg/mL (≈ 31.2 µM); IC50 MCF7 (MCF7 cells): 4.3 µg/mL (≈ 6.49 µM)
CC1CC2OC3(OC2C(C)(C)O)C1C1(C)CCC24CC25CCC(OC2OCC(O)C(O)C2O)C(C)(C)C5CCC4C1(C)C3O [Compound 6, cimigenol-3-O-β-D-xylopyranoside]	–	94.8 ± 3.0%	94.5 ± 3.5%	93.5 ± 3.2%	no activity	101.7 ± 0.9%	99.5 ± 1.8%	100.5 ± 2.4%	no activity	98.5 ± 0.8%	91.8 ± 3.4%	88.5 ± 0.3%	no activity	–	–	–	activity against R-MCF7 (in words) [2]: no activity; activity against MCF7 (in words) (MCF7 cells): no activity
CC(=O)O[C@@H]1C[C@@]23C[C@@]24CC[C@H](O[C@@H]2OC[C@@H](O)[C@H](O)[C@H]2O)C(C)(C)[C@@H]4CC[C@H]3[C@]2(C)C[C@@H]3O[C@@]4(C[C@@H](C)[C@@H]3[C@@]12C)OC[C@@]1(C)O[C@@H]41 [23-epi-26-deoxyactein]	21 µg/mL	–	–	–	–	–	–	–	–	–	–	–	–	–	–	–	–
CC(=O)O[C@@H]1C[C@@]23C[C@@]24CC[C@H](O[C@@H]2OC[C@@H](O)[C@H](O)[C@H]2O)C(C)(C)[C@@H]4CC[C@H]3[C@]2(C)C[C@@H]3O[C@]4(C[C@@H](C)[C@@H]3[C@@]12C)O[C@H](O)[C@@]1(C)O[C@@H]41 [Compound 1, actein]	14 µg/mL	–	–	–	–	–	–	–	–	–	–	–	–	–	–	–	MM Cells % Alive U266 (U266 myeloma cell line; [7]): 90.2 ± 4.1%; MM Cells % Alive U266 (U266 myeloma cell line; [8]): 81.0 ± 5.9%; MM Cells % Alive U266 (U266 myeloma cell line; [9]): 75.1 ± 6.4%; MM Cells % Alive U266 (U266 myeloma cell line; [10]): 35.5 ± 6.7%; MM Cells % Alive OPM-2 (OPM-2 myeloma cell line; [7]): 93.2 ± 3.7%; MM Cells % Alive OPM-2 (OPM-2 myeloma cell line; [8]): 93.1 ± 2.4%; MM Cells % Alive OPM-2 (OPM-2 myeloma cell line; [9]): 81.1 ± 4.7%; MM Cells % Alive OPM-2 (OPM-2 myeloma cell line; [10]): 67.3 ± 6.7%; MM Cells % Alive NCI-H929 [1, 7]: 80.5 ± 5.9%; MM Cells % Alive NCI-H929 [1, 8]: 70.2 ± 4.3%; MM Cells % Alive NCI-H929 [1, 9]: 48.2 ± 10.9%; MM Cells % Alive NCI-H929 [1, 10]: 13.2 ± 2.4%; PBMC % Alive [3, 7]: 96.4 ± 0.1%; PBMC % Alive [3, 8]: 94.6 ± 0.2%; PBMC % Alive [3, 9]: 85.6 ± 1.2%; PBMC % Alive [3, 10]: 74.9 ± 1.2%
